Source: ChEMBL document CHEMBL3991601, “The target landscape of clinical kinase drugs” (Science, 2017)
The source made the active and inactive calls. Rule as the data show it, for most assays here: actives have a measured Kd and inactives only a lower limit.

Assays:
[1] = target: Protein-tyrosine kinase 2-beta (Homo sapiens, UniProt Q14289)
[2] = target: Focal adhesion kinase 1 (Homo sapiens, UniProt Q05397)
[3] = target: T1, Ribosyldihydronicotinamide dehydrogenase [quinone] (Homo sapiens, UniProt P16083)
T1 sequence (P16083 whole entry): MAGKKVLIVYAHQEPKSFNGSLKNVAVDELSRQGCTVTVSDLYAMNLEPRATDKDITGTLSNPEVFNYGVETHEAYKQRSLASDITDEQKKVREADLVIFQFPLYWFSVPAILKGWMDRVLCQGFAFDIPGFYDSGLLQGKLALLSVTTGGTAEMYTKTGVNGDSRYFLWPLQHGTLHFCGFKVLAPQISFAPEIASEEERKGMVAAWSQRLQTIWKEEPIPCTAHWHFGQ

[4] = target: T2, Very long-chain specific acyl-CoA dehydrogenase, mitochondrial (Homo sapiens, UniProt P49748)
T2 sequence (P49748 whole entry): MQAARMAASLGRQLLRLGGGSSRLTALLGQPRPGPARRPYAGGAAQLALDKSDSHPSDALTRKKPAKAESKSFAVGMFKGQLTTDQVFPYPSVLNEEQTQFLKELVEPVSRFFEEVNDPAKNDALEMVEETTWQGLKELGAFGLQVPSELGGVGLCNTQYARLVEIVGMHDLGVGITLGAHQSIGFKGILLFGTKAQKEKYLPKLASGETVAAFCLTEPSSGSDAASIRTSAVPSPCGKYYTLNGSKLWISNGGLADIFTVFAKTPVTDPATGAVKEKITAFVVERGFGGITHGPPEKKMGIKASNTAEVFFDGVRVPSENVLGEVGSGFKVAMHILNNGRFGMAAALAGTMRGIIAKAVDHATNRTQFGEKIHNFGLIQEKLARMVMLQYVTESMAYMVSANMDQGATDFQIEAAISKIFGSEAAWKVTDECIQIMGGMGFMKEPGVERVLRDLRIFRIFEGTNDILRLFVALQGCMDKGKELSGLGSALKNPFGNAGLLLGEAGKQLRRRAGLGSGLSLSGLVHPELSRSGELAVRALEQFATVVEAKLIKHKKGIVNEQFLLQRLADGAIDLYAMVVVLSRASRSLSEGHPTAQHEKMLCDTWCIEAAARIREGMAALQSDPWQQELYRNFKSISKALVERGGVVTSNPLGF

[5] = target: Proto-oncogene tyrosine-protein kinase receptor Ret (Homo sapiens, UniProt P07949)
Chain of Proto-oncogene tyrosine-protein kinase receptor Ret (P07949 whole entry): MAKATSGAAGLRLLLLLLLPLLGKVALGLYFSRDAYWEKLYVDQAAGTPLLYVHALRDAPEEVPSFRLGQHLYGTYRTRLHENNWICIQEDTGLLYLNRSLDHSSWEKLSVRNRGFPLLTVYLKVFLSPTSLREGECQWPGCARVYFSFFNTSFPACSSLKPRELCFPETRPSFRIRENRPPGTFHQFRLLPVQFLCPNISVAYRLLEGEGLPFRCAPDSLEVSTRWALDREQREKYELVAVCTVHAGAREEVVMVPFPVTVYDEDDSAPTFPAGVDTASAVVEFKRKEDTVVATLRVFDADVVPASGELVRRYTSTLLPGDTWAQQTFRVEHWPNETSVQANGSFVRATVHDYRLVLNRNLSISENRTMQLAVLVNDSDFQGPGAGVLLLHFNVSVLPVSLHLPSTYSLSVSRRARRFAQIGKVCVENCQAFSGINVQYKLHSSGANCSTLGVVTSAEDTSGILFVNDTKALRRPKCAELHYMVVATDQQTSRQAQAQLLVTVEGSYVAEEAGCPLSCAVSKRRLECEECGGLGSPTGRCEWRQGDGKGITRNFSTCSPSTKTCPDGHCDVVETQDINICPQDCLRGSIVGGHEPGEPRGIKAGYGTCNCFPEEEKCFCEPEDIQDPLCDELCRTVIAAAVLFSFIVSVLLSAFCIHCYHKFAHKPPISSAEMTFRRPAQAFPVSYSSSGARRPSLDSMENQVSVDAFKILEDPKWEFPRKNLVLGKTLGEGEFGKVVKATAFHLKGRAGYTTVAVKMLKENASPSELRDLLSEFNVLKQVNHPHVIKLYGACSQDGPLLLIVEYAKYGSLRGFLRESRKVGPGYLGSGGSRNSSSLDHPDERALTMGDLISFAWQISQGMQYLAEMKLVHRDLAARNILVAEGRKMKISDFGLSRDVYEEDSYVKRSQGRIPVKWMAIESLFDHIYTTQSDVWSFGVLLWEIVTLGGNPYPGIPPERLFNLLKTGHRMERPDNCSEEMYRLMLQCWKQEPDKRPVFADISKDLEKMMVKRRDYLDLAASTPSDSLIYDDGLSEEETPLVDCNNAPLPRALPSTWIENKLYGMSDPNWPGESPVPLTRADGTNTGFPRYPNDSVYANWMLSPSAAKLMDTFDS

[6] = target: Cyclin-dependent kinase 12 (Homo sapiens, UniProt Q9NYV4)
Chain of Cyclin-dependent kinase 12 (Q9NYV4 whole entry): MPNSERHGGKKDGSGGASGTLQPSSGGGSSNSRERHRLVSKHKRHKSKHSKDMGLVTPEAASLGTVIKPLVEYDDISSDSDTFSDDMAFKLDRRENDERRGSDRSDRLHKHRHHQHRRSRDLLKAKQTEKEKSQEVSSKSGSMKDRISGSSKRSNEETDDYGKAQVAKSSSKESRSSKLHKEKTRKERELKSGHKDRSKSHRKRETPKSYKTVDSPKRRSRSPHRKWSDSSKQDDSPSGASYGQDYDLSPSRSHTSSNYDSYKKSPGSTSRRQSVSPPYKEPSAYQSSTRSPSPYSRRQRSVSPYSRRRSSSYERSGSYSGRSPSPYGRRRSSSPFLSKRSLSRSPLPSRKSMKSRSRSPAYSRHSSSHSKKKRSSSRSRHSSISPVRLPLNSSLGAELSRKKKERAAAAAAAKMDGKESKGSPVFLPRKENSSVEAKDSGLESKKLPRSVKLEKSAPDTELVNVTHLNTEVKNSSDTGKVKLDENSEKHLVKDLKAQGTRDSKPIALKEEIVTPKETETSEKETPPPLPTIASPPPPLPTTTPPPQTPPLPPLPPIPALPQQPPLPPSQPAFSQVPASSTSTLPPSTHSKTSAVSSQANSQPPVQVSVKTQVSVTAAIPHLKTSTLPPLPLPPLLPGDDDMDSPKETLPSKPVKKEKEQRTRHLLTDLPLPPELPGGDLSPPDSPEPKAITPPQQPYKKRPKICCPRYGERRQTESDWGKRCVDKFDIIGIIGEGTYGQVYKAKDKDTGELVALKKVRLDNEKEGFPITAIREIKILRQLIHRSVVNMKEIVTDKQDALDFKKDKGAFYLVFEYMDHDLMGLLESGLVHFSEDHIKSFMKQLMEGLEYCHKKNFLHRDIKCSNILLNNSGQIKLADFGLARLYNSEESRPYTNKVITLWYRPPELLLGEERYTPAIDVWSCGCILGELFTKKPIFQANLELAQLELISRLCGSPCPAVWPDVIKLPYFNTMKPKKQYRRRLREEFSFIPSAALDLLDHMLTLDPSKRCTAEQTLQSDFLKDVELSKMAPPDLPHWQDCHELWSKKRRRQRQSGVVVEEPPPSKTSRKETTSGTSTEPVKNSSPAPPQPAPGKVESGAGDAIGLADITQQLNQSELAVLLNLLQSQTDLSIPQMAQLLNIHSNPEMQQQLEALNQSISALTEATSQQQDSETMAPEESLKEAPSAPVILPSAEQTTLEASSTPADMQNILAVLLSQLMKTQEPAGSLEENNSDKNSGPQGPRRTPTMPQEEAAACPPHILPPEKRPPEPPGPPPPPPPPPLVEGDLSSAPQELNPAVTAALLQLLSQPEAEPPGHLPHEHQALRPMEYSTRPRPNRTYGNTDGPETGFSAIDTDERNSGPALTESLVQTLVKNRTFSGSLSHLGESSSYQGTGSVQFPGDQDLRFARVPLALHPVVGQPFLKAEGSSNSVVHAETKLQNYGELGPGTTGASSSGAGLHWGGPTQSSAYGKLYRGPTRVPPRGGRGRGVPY

[7] = target: Tyrosine-protein kinase Fer (Homo sapiens, UniProt P16591)
[8] = target: T3, Acyl-CoA dehydrogenase family member 10 (Homo sapiens, UniProt Q6JQN1)
T3 sequence (Q6JQN1 whole entry): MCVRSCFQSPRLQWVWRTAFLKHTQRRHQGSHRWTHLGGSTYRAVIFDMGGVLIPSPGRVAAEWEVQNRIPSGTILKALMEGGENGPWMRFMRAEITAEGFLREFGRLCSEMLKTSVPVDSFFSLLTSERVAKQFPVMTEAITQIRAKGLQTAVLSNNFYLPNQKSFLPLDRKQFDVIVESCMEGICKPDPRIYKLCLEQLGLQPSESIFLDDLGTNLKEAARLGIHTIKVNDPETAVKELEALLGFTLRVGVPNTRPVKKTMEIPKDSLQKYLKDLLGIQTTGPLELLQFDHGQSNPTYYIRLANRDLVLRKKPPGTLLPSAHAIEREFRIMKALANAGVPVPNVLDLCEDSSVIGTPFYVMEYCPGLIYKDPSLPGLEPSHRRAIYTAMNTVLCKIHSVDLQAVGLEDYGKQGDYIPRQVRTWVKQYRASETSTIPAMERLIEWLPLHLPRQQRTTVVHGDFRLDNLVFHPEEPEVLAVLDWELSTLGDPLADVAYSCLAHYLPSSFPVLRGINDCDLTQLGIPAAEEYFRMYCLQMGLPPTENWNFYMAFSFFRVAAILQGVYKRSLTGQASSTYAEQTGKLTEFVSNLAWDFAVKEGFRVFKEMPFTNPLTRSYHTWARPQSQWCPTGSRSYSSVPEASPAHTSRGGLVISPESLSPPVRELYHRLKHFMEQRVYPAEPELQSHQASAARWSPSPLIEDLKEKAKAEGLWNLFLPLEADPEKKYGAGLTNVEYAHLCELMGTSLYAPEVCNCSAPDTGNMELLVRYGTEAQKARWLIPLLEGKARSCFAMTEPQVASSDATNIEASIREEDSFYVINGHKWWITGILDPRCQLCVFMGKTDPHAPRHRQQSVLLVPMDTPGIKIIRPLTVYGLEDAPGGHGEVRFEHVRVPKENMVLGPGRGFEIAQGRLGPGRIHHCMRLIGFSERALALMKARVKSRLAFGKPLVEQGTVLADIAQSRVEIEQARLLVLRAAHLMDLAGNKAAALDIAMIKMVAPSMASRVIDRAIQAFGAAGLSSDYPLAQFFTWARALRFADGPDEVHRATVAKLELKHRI

[9] = target: Tyrosine-protein kinase JAK1 (Homo sapiens, UniProt P23458)
Chain of Tyrosine-protein kinase JAK1 (P23458 whole entry): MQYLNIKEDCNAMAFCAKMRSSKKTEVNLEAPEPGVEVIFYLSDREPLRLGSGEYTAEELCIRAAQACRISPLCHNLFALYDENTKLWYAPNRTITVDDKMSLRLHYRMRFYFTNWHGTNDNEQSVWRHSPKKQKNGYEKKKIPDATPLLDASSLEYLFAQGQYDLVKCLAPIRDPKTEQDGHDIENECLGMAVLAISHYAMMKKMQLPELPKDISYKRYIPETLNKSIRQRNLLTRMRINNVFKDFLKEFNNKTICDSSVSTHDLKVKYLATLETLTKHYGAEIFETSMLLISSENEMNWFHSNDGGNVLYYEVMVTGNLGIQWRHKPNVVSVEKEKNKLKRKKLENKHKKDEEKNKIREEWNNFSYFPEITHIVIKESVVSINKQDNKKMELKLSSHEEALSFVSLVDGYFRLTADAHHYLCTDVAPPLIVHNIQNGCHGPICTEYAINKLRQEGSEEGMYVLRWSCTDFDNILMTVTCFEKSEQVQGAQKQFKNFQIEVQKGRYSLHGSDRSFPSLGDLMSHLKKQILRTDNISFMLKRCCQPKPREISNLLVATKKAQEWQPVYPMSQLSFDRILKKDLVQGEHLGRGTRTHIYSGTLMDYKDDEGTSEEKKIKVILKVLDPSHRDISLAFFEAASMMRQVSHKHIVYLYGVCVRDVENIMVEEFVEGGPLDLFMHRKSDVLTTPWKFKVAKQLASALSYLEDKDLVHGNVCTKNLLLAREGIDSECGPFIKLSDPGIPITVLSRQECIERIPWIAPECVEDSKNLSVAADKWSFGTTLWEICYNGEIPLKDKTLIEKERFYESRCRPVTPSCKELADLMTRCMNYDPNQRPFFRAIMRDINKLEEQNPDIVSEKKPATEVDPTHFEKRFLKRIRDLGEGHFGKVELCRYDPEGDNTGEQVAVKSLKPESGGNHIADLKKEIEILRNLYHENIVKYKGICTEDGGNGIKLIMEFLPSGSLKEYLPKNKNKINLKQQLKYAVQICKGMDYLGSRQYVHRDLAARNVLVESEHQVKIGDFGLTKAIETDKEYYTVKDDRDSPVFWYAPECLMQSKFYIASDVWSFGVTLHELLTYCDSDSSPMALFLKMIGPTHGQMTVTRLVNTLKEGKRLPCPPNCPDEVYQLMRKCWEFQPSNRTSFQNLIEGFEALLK

[10] = target: T4, Non-receptor tyrosine-protein kinase TNK1 (Homo sapiens, UniProt Q13470)
T4 sequence (Q13470 whole entry): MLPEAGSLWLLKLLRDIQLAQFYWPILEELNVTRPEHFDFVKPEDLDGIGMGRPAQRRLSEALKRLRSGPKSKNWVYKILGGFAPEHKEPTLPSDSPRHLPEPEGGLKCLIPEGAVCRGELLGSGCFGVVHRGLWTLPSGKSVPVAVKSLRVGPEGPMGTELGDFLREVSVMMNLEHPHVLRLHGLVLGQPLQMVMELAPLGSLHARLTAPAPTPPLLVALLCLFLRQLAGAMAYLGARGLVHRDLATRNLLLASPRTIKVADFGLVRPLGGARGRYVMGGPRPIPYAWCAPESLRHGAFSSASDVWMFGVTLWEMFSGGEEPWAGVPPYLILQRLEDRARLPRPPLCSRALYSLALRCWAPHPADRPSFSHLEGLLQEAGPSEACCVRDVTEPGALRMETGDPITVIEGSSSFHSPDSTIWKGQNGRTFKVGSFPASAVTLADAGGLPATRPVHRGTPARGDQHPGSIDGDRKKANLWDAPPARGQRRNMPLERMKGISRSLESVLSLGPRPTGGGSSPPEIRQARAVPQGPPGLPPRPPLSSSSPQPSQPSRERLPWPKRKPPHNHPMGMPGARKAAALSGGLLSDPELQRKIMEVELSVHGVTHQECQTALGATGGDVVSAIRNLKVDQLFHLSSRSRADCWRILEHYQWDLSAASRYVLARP
Also: in the data inactive means no Kd found up to 30 µM.

Chain of Protein-tyrosine kinase 2-beta (Q14289 whole entry): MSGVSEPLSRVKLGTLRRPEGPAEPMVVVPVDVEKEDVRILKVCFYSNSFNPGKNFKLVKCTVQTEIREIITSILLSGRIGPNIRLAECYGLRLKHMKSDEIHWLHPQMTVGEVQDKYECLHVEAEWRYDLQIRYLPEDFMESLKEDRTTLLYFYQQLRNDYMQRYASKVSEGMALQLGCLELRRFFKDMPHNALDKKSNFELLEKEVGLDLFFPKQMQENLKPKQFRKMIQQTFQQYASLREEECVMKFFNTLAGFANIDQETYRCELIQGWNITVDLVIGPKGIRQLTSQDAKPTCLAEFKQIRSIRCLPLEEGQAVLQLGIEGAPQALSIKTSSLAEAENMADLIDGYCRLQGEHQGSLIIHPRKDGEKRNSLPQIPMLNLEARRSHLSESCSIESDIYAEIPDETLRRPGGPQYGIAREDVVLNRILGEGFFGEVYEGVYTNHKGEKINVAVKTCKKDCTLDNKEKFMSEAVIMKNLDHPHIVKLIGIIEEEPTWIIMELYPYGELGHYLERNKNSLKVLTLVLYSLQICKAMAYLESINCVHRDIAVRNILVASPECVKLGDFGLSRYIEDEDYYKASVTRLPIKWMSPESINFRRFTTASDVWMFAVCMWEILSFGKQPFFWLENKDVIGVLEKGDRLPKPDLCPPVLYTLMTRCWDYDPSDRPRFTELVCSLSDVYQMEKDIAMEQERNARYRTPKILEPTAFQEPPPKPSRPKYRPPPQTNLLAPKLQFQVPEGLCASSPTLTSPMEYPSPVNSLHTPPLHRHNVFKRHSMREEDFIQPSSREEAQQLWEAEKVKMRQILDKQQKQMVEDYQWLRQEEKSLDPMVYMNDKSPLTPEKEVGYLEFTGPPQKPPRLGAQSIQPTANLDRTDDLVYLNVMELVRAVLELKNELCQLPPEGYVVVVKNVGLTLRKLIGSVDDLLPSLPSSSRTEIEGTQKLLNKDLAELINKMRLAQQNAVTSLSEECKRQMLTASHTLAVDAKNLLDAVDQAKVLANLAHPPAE

In the case of CCn1cc(-c2ccnc3[nH]c(-c4cccc(CN(C)C)c4)cc23)c(-c2ccc(NC(=O)N(C)C)cc2)n1 [GSK-1070916], the Kd [1] is reported as > 30 µM (inactive), the Kd [2] is reported as > 30 µM (inactive) and the Kd [3] is reported as > 30 µM (inactive). For the same compound, the Kd [4] was > 30 µM (inactive), the Kd [5] was 0.067 µM (active) and the Kd [6] was > 30 µM (inactive). The Kd [7] was > 30 µM (inactive), the Kd [8] was 1.11 µM (active) and the Kd [9] was > 30 µM (inactive).

For COc1ncc(-c2ccc3nccc(-c4ccnnc4)c3c2)cc1NS(=O)(=O)c1ccc(F)cc1F [OMIPALISIB], the Kd [1] was > 30 µM (inactive), the Kd [2] was > 30 µM (inactive) and the Kd [3] was > 30 µM (inactive). The Kd [4] was > 30 µM (inactive), the Kd [5] was > 30 µM (inactive) and the Kd [10] was > 30 µM (inactive). The Kd [6] was > 30 µM (inactive), the Kd [7] was > 30 µM (inactive) and the Kd [9] was > 30 µM (inactive).

In the case of CCOc1cc2ncc(C#N)c(Nc3ccc(F)c(Cl)c3)c2cc1NC(=O)/C=C/CN(C)C [PELITINIB], the Kd [1] is reported as > 30 µM (inactive), the Kd [3] is reported as > 30 µM (inactive) and the Kd [4] is reported as > 30 µM (inactive). The Kd [5] was > 30 µM (inactive), the Kd [10] was > 30 µM (inactive) and the Kd [6] was > 30 µM (inactive). For the same compound, the Kd [7] was > 30 µM (inactive), the Kd [8] was > 30 µM (inactive) and the Kd [9] was > 30 µM (inactive).

CCS(=O)(=O)c1cccc(-c2cc(C(=O)NC3CCN(C)CC3)c(C)c3[nH]c4ncc(C)cc4c23)c1 [TAK-901] was tested, and the Kd [1] was 0.19 µM (active), the Kd [2] was 0.264 µM (active) and the Kd [3] was 88.9 µM (active). For the same compound, the Kd [4] was > 30 µM (inactive), the Kd [5] was 0.111 µM (active) and the Kd [10] was 0.558 µM. For the same compound, the Kd [6] was > 30 µM (inactive), the Kd [7] was 0.574 µM (active) and the Kd [9] was > 30 µM (inactive).

In the case of Cn1ncc(Cl)c1-c1cc(C(=O)N[C@H](CN)Cc2ccc(F)c(F)c2)oc1Cl [UPROSERTIB], the Kd [1] is reported as > 30 µM (inactive), the Kd [2] is reported as > 30 µM (inactive) and the Kd [3] is reported as > 30 µM (inactive). The Kd [4] was > 30 µM (inactive), the Kd [5] was > 30 µM (inactive) and the Kd [10] was > 30 µM (inactive). For the same compound, the Kd [6] was > 30 µM (inactive), the Kd [7] was > 30 µM (inactive) and the Kd [9] was > 30 µM (inactive).

CC(C)c1cc(CNc2nc(Nc3cc(C4CC4)[nH]n3)cc(N3CCN(C)CC3)n2)on1 [XL-228] was tested, and the Kd [1] was 0.118 µM (active), the Kd [2] was 0.022 µM (active) and the Kd [3] was > 30 µM (inactive). For the same compound, the Kd [4] was > 30 µM (inactive), the Kd [5] was 0.009 µM (active) and the Kd [10] was 0.003 µM (active). The Kd [6] was > 30 µM (inactive), the Kd [7] was 0.105 µM (active) and the Kd [9] was > 30 µM (inactive).

For C[C@@H](N)c1ccc(C(=O)Nc2ccnc3[nH]ccc23)cc1 [Y-39983], the Kd [1] was > 30 µM (inactive), the Kd [2] was > 30 µM (inactive) and the Kd [3] was > 30 µM (inactive). For the same compound, the Kd [4] was > 30 µM (inactive), the Kd [5] was > 30 µM (inactive) and the Kd [10] was > 30 µM (inactive). The Kd [6] was > 30 µM (inactive), the Kd [7] was > 30 µM (inactive) and the Kd [9] was > 30 µM (inactive).

For CN1C/C=C/CCOc2cccc(c2)-c2ccnc(n2)Nc2cccc(c2)C1 [ZOTIRACICLIB], the Kd [1] was > 30 µM (inactive), the Kd [2] was > 30 µM (inactive) and the Kd [3] was > 30 µM (inactive). For the same compound, the Kd [4] was > 30 µM (inactive), the Kd [5] was 21.9 µM and the Kd [10] was > 30 µM (inactive). For the same compound, the Kd [6] was 5.63 µM (active), the Kd [7] was 1.69 µM and the Kd [9] was 2.01 µM (active).
